The source made the active and inactive calls. No cut-off for these calls is given here.
Tests used:
[1] = Enhancement of ConA-induced IFN-gamma secretion in Swiss Albino mouse splenocytes by ELISA relative to control; format: functional, Splenocyte
[2] = Enhancement of ConA-induced proliferation in Swiss Albino mouse splenocyte at 20 uM after 72 hrs by MTT assay relative to control; format: functional
[3] = Enhancement of ConA-induced IL2 secretion in Swiss Albino mouse splenocytes by ELISA relative to control; format: functional, Splenocyte
Homo sapiens [4] = species: Homo sapiens; test: Inhibition of human beta galactosidase
[5] = Enhancement of ConA-induced proliferation in Swiss Albino mouse splenocyte at 10 uM after 72 hrs by MTT assay relative to control; format: functional
[6] = target: Mannosyl-oligosaccharide 1,2-alpha-mannosidase IA (Homo sapiens) (UniProt P33908); test: Inhibition of human alpha mannosidase
[7] = Enhancement of ConA-induced IL6 secretion in Swiss Albino mouse splenocytes by ELISA relative to control; format: functional, Splenocyte
[8] = target: T1, Neutral alpha-glucosidase AB (Homo sapiens) (UniProt Q14697); test: Inhibition of human alpha glucosidase
T1 sequence (whole entry): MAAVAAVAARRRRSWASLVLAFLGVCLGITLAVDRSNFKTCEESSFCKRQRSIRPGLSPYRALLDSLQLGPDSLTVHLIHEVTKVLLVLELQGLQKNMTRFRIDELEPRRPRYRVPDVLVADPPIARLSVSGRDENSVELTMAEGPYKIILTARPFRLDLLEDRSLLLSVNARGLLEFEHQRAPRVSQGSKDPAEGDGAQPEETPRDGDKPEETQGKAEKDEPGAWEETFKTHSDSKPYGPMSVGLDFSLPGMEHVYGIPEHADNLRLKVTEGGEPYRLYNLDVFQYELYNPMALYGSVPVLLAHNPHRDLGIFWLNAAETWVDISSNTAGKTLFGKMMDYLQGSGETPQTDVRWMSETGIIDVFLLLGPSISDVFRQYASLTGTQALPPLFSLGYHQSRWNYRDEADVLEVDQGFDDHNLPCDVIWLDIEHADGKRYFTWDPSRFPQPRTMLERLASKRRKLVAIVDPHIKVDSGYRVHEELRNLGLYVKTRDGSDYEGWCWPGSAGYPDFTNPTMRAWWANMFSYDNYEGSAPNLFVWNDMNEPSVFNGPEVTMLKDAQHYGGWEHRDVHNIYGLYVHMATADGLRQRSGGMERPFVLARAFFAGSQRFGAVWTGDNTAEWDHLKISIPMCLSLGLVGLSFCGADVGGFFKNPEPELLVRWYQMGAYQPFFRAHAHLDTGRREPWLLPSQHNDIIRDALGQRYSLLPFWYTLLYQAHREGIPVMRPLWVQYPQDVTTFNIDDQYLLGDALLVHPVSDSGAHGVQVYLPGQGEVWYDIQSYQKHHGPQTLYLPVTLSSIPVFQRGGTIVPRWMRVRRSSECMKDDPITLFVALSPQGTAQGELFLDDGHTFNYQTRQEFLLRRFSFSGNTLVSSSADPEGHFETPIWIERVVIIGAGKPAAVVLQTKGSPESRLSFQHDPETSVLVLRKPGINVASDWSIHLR

[9] = target: T2, Alpha-galactosidase A (Homo sapiens) (UniProt P06280); test: Inhibition of human alpha galactosidase
T2 sequence (whole entry): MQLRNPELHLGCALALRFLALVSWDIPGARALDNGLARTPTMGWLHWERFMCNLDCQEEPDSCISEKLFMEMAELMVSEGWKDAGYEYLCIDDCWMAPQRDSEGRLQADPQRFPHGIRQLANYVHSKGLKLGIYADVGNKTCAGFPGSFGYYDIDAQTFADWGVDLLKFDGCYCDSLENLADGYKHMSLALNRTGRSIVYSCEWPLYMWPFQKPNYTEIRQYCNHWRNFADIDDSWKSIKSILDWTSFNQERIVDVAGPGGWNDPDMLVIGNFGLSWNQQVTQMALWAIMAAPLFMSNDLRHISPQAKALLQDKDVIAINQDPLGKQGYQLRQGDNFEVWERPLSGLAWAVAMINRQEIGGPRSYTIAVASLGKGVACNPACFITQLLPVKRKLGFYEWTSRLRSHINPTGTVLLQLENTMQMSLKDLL

[10] = Enhancement of ConA-induced proliferation in Swiss Albino mouse splenocyte at 5 uM after 72 hrs by MTT assay relative to control; format: functional
Splenocyte = test: (§1) Enhancement of ConA-induced proliferation in Swiss Albino mouse splenocyte at 75 uM after 72 hrs by MTT assay relative to control; format: functional
[11] = Enhancement of ConA-induced proliferation in Swiss Albino mouse splenocyte at 100 uM after 72 hrs by MTT assay relative to control; format: functional
Homo sapiens [12] = species: Homo sapiens; test: Inhibition of human beta glucosidase
[13] = Reduction of ConA-induced IL4 secretion in Swiss Albino mouse splenocytes by ELISA relative to control; format: functional, Splenocyte; parameters: scale not given: the % may be the effect or the level left
[14] = as §1; format: functional

Chain of Mannosyl-oligosaccharide 1,2-alpha-mannosidase IA (Homo sapiens) (P33908 whole entry): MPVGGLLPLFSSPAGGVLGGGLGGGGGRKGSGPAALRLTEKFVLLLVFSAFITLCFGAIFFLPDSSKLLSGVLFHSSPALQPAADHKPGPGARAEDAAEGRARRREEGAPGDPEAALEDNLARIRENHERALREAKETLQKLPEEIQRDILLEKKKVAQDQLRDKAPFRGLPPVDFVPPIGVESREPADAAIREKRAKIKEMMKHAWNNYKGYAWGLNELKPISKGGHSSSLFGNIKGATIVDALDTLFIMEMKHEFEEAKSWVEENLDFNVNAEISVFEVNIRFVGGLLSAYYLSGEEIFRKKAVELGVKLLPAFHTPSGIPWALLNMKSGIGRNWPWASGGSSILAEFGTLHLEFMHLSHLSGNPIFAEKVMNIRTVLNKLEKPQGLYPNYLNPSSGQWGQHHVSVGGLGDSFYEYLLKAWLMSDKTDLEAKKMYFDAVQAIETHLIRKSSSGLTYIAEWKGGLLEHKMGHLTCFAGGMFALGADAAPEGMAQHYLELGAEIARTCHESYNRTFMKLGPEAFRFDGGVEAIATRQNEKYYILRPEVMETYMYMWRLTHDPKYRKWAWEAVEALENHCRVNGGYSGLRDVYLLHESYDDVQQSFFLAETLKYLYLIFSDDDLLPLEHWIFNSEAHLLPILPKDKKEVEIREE

| SMILES | Activity [1] [%] | Activity [2] [%] | Activity [3] [%] | Activity (Homo sapiens [4]) | Activity [5] [%] | Activity [6] | Ratio [7] | Activity [8] | Activity [9] | Activity [10] [%] | Activity (Splenocyte) | Activity [11] [%] | Activity (Homo sapiens [12]) | Activity [13] [%] | Activity [14] [%] |
| --- | --- | --- | --- | --- | --- | --- | --- | --- | --- | --- | --- | --- | --- | --- | --- |
| OC[C@H]1CCN2C[C@H](O)[C@@H](O)[C@H](O)[C@@H]12 | 40.5 | 40 | 6.6 | inactive | 109 | inactive | >5.5 | inactive | inactive | 161 | inactive | 27 | inactive | 20.6 | – |
| OC[C@@H]1CCN2C[C@H](O)[C@@H](O)[C@H](O)[C@@H]12 | 9.5 | 69 | 3.3 | inactive | 61 | inactive | >9 | inactive | inactive | 19 | – | 31 | inactive | 47 | 41 |
